The numbers were not newly measured in patent publication US20070043030A1, “Pharmaceutical compositions for treating premature ejaculation by pulmonary inhalation” (Vectura Limited, priority 2003, published 2007), which cites them from elsewhere.

Where only a bound is given, the exact number is not on record here.

Data set [1] relates to male patients with primary PE. The conditions noted are these: oral, 3 to 5 hours before planned intercourse, 4-week treatment period.
The subject of another data set is ejaculation. The conditions noted are these: oral administration.
For another data set, the system named is rapid ejaculation. The conditions noted are these: daily oral doses of 25-50 mg.
For data set [2] the following is noted: oral formulation used for antidepressive indications.

As for `CNCCCN1c2ccccc2CCc2ccc(Cl)cc21` [desmethylclomipramine], the plasma half-life entry (oral dose (clomipramine: single oral dose)) is listed as “around 36 hours”. In the case of `CCCc1nn(C)c2c(=O)[nH]c(-c3cc(S(=O)(=O)N4CCN(C)CC4)ccc3OCC)nc12` [sildenafil], the “efficacy in primary PE” value in data set [1] was “optimal efficacy”. `CN[C@H]1CC[C@@H](c2ccc(Cl)c(Cl)c2)c2ccccc21` [sertraline]: the “efficacy in primary PE” value in data set [1] is “comparable efficacy”. Moreover, the delay in ejaculation result in the data set on ejaculation is “effective in producing a delay in ejaculation”. As for `CNCCC(Oc1ccc(C(F)(F)F)cc1)c1ccccc1` (centres unmarked) [fluoxetine], the delay in ejaculation entry in the data set on ejaculation is “effective in producing a delay in ejaculation”.

As for `CN(C)CCCN1c2ccccc2CCc2ccc(Cl)cc21` [clomipramine, 3-chloro-5-[3-(dimethylamino)-propyl]-10,11-dihydro-5H-dibenz[b,f]azepine], the “time of peak plasma levels after dosage” value (oral administration) is “two”. Also, the “effect on ejaculatory latency” value in the data set with rapid ejaculation was “effective in significantly lengthening ejaculatory latencies”. The “efficacy in primary PE” value in data set [1] is recorded as “comparable efficacy”. Further, the “frequency of frequently reported side effects (dry mouth, sweating, constipation, blurred vision, nausea, drowsiness, headache, dizziness)” value in data set [2] is given as above 10%. For `Fc1ccc([C@@H]2CCNC[C@H]2COc2ccc3c(c2)OCO3)cc1` [paroxetine], the “efficacy in primary PE” value in data set [1] is recorded as “comparable efficacy”. Also, the delay in ejaculation entry in the data set with ejaculation is “effective in producing a delay in ejaculation”.
